Experimental data reported in patent US5236936A, “Pyridine compounds which are useful as angiotensin II receptor antagonists” (Imperial Chemical Industries PLC, priority 1991, dated 1993).

How the values were obtained:
[1] = molecular target: T1, AII receptors (guinea pig adrenal gland cell surface membrane fraction) (Cavia porcellus, UniProt Q9WV26); assay: Test A: displacement of radiolabelled AII binding to guinea pig adrenal gland cell surface membranes; settings: read-out: IC50 (concentration for 50% displacement of radiolabelled AII binding)
T1 construct: from tissue; host or cells: guinea pig adrenal gland, cell surface membrane fraction
T1 sequence (Q9WV26 1-359): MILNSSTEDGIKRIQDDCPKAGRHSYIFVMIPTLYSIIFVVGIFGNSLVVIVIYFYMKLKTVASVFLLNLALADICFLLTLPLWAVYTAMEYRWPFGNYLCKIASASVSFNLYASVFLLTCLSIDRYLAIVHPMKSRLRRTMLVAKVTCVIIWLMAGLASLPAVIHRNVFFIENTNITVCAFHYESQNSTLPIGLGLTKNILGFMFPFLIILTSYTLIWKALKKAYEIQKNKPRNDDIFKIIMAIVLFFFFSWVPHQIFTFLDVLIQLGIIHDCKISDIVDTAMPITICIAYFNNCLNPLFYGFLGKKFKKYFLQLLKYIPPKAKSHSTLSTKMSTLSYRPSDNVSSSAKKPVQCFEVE
Procedure: Test A: This in vitro procedure involves the incubation of the test compound initially at a concentration of 100 micromolar (or less) in a buffered mixture containing fixed concentrations of radiolabelled AII and a cell surface membrane fraction prepared from a suitable angiotensin target tissue. In this test, the source of cell surface membranes is the guinea pig adrenal gland which is well known to respond to AII. Interaction of the radiolabelled AII with its receptors (assessed as radiolabel bound to the particulate membrane fraction following removal of unbound radiolabel by a rapid filtration procedure such as is standard in such studies) is antagonized by compounds which also bind to the membrane receptor sites and the degree of antagonism (observed in the test as displacement of membrane-bound radioactivity) is determined readily by comparing the receptor-bound radioactivity in the presence of the test compound at the specified test concentration with a control value determined in the absence of the test compound. Using this procedure compounds showing at least 50% displacement of radiolabelled AII binding at a concentration of 10^-4 M are retested at lower concentrations to determine their potency. […]

[2] = tested on: angiotensin II-induced pressor responses; assay: Test C: antagonism of angiotensin II-induced pressor responses in terminally-anaesthetised or conscious rats; type: in vivo; settings: iv, rat, i.v. administration
Procedure: Test C: This in vivo test involves using terminally-anaesthetised or conscious rats in which an arterial catheter has been implanted under anaesthesia for the measurement of changes in blood pressure. The AII antagonistic effects of the test compound following oral or parenteral administration, are assessed against angiotensin II-induced pressor responses. To ensure that the effect is specific, the effect of the test compound on vasopressin-induced pressor responses may also be determined in the same preparation.

- IC50 [1]: 5.5 nM
Structure (SMILES): CCc1cc(OCc2ccc(-c3ccccc3-c3nnn[nH]3)cc2)c(-c2ccncc2)c(C)n1.Cl.Cl [Example 3, 6-ethyl-2-methyl-3-(4-pyridyl)-4-[(2'-(1H-tetrazol-5-yl)biphenyl-4-yl)methoxy]pyridine dihydrochloride]
- ED50 [2]: 0.18 mg/kg
